Like-named read-outs stand apart in the source and are kept apart here.
Tested on: MCF7/AdrR cells
Experiment: MTT viability assay of transfected drug resistant cells exposed to drug
Format: cell-based, human
Conditions: for IC50: Homo sapiens; for sensitivity of cells expressing WTH3 to drug: MCF7/AdrR cells transfected with pcDNA/WTH3
Excerpt: Reversion of MDR phenotype by overexpression of WTH3, RAB6 or RAB6C in MCF7/AdrR cells. WTH3, RAB6 and RAB6C cDNAs were inserted into pcDNA1.1/Amp expression vectors (Invitrogen Corp.) and transfected into drug resistant MCF7/AdrR cells (Lipofect Amine Plus™; Life Technologies, Inc., (GIBCO)). Expression of the exogenous WTH3 (pcDNA/WTH3), RAB6 (pcDNA/RAB6) or RAB6C (pcDNA/RAB6C) genes in transfected cells was confirmed by RT-PCR. Control cells were provided by transfection with pcDNA1.1/Amp which contained no insert. Cells were exposed to various concentrations of doxorubicin and viablity was determined after 72 hours by MTT assay. […] Cells expressing RAB6 or RAB6C cDNAs were tested for sensitivity to doxorubicin. […] The drug resistant control cells were 3.2 (P<0.0001) times more resistant to the antitumor drug than pcDNA/RAB6C containing cells and 2.2 (P<0.0001) times more resistant to the antitumor drug than pcDNA/RAB6 containing cells.

| Structure (SMILES) | IC50 (MCF7, 72 h, control cells transfected with pcDNA1.1/Amp (no insert), viability after 72 hours by MTT, read-out: Mean IC50± SD) | IC50 (MCF7, 72 h, pcDNA/RAB6C containing cells, viability after 72 hours by MTT, read-out: Mean IC50± SD) | IC50 (MCF7, 72 h, pcDNA/RAB6 containing cells, viability after 72 hours by MTT, read-out: Mean IC50± SD) | IC50 (MCF7, MCF7/AdrR cells carrying endogenously expressed RAB6C, read-out: IC50 for doxorubicin) | sensitivity of cells expressing WTH3 to drug | resistance of control cells relative to pcDNA/RAB6C containing cells (control vs pcDNA/RAB6C cells, P<0.0001) | resistance of control cells relative to pcDNA/RAB6 containing cells (control vs pcDNA/RAB6 cells, P<0.0001) | sensitivity to doxorubicin compared to cells transfected with a control vector (drug resistant cells transfected with a vector which expresses WTH3, RAB6C, or RAB6) |
| --- | --- | --- | --- | --- | --- | --- | --- | --- |
| COc1cccc2c1C(=O)c1c(O)c3c(c(O)c1C2=O)C[C@@](O)(C(=O)CO)C[C@@H]3O[C@H]1C[C@H](N)[C@H](O)[C@H](C)O1 [doxorubicin] | 4930 ± 300 nM | 1530 ± 130 nM | 2230 ± 170 nM | 1000 to 2500 nM | increased sensitivity | 3.2 times | 2.2 times | increased sensitivity |
| CC[C@]1(O)C[C@H]2CN(CCc3c([nH]c4ccccc34)[C@@](C(=O)OC)(c3cc4c(cc3OC)N(C=O)[C@H]3[C@@](O)(C(=O)OC)[C@H](OC(C)=O)[C@]5(CC)C=CCN6CC[C@]43[C@@H]65)C2)C1 [vincristine] | – | – | – | – | increased sensitivity | – | – | – |
